From ChEMBL document CHEMBL1147101, “Development and persistence of antimicrobial resistance in Pseudomonas aeruginosa: a longitudinal observation in mechanically ventilated patients” (Antimicrob Agents Chemother, 2007)
Active and inactive are the calls of the source.

How the values were obtained:
Assay type in all cases: functional, organism-based
Settings in all cases: Trachea
Pseudomonas aeruginosa [1] = experiment: Antimicrobial activity against Pseudomonas aeruginosa 65.38-3 tracheal isolates from mechanically ventilated tuberculosis patient
Pseudomonas aeruginosa [2] = experiment: Antimicrobial activity against Pseudomonas aeruginosa 1A9 tracheal isolates from mechanically ventilated tuberculosis patient
Pseudomonas aeruginosa [3] = experiment: Antimicrobial activity against Pseudomonas aeruginosa 1B9 tracheal isolates from mechanically ventilated tuberculosis patient
Pseudomonas aeruginosa [4] = experiment: Antimicrobial activity against Pseudomonas aeruginosa 13D11 tracheal isolates from mechanically ventilated chronic respiratory insufficiency patient
Pseudomonas aeruginosa [5] = experiment: Antimicrobial activity against Pseudomonas aeruginosa 13E1 tracheal isolates from mechanically ventilated chronic respiratory insufficiency patient
Pseudomonas aeruginosa [6] = experiment: Antimicrobial activity against Pseudomonas aeruginosa 15G2 tracheal isolates from mechanically ventilated chronic respiratory insufficiency patient
Pseudomonas aeruginosa [7] = experiment: Antimicrobial activity against Pseudomonas aeruginosa 2C1 tracheal isolates from mechanically ventilated tuberculosis patient
Pseudomonas aeruginosa [8] = experiment: Antimicrobial activity against Pseudomonas aeruginosa 2A2 tracheal isolates from mechanically ventilated tuberculosis patient
Pseudomonas aeruginosa [9] = experiment: Antimicrobial activity against Pseudomonas aeruginosa 2C2 tracheal isolates from mechanically ventilated tuberculosis patient
Pseudomonas aeruginosa [10] = experiment: Antimicrobial activity against Pseudomonas aeruginosa 2A3 tracheal isolates from mechanically ventilated tuberculosis patient
Pseudomonas aeruginosa [11] = experiment: Antimicrobial activity against Pseudomonas aeruginosa 2A5 tracheal isolates from mechanically ventilated tuberculosis patient
Pseudomonas aeruginosa [12] = experiment: Antimicrobial activity against Pseudomonas aeruginosa 2F6 tracheal isolates from mechanically ventilated tuberculosis patient
Pseudomonas aeruginosa [13] = experiment: Antimicrobial activity against Pseudomonas aeruginosa 2A7 tracheal isolates from mechanically ventilated tuberculosis patient
Pseudomonas aeruginosa [14] = experiment: Antimicrobial activity against Pseudomonas aeruginosa 2A9 tracheal isolates from mechanically ventilated tuberculosis patient
Pseudomonas aeruginosa [15] = experiment: Antimicrobial activity against Pseudomonas aeruginosa 3B1 tracheal isolates from mechanically ventilated tuberculosis patient
Pseudomonas aeruginosa [16] = experiment: Antimicrobial activity against Pseudomonas aeruginosa 65.68-1 tracheal isolates from mechanically ventilated tuberculosis patient
Pseudomonas aeruginosa [17] = experiment: Antimicrobial activity against Pseudomonas aeruginosa 65.68-2 tracheal isolates from mechanically ventilated tuberculosis patient
Pseudomonas aeruginosa [18] = experiment: Antimicrobial activity against Pseudomonas aeruginosa 65.68-3 tracheal isolates from mechanically ventilated tuberculosis patient
Pseudomonas aeruginosa [19] = experiment: Antimicrobial activity against Pseudomonas aeruginosa 5H6 tracheal isolates from mechanically ventilated chronic respiratory insufficiency patient
Pseudomonas aeruginosa [20] = experiment: Antimicrobial activity against Pseudomonas aeruginosa 65.68-4 tracheal isolates from mechanically ventilated tuberculosis patient
Pseudomonas aeruginosa [21] = experiment: Antimicrobial activity against Pseudomonas aeruginosa 12A7 tracheal isolates from mechanically ventilated chronic respiratory insufficiency patient
Pseudomonas aeruginosa [22] = experiment: Antimicrobial activity against Pseudomonas aeruginosa 12B2 tracheal isolates from mechanically ventilated chronic respiratory insufficiency patient
Pseudomonas aeruginosa [23] = experiment: Antimicrobial activity against Pseudomonas aeruginosa 15H5 tracheal isolates from mechanically ventilated chronic respiratory insufficiency patient
Pseudomonas aeruginosa [24] = experiment: Antimicrobial activity against Pseudomonas aeruginosa 16D5 tracheal isolates from mechanically ventilated chronic respiratory insufficiency patient
Pseudomonas aeruginosa [25] = experiment: Antimicrobial activity against Pseudomonas aeruginosa 19B3 tracheal isolates from mechanically ventilated chronic respiratory insufficiency patient
Pseudomonas aeruginosa [26] = experiment: Antimicrobial activity against Pseudomonas aeruginosa 19B6 tracheal isolates from mechanically ventilated chronic respiratory insufficiency patient
Pseudomonas aeruginosa [27] = experiment: Antimicrobial activity against Pseudomonas aeruginosa 19C7 tracheal isolates from mechanically ventilated chronic respiratory insufficiency patient
Pseudomonas aeruginosa [28] = experiment: Antimicrobial activity against Pseudomonas aeruginosa 19D9 tracheal isolates from mechanically ventilated chronic respiratory insufficiency patient
Pseudomonas aeruginosa [29] = experiment: Antimicrobial activity against Pseudomonas aeruginosa 3D1 tracheal isolates from mechanically ventilated chronic respiratory insufficiency patient
Pseudomonas aeruginosa [30] = experiment: Antimicrobial activity against Pseudomonas aeruginosa 3D10 tracheal isolates from mechanically ventilated chronic respiratory insufficiency patient
Pseudomonas aeruginosa [31] = experiment: Antimicrobial activity against Pseudomonas aeruginosa 3E2 tracheal isolates from mechanically ventilated chronic respiratory insufficiency patient
Pseudomonas aeruginosa [32] = experiment: Antimicrobial activity against Pseudomonas aeruginosa 5F8 tracheal isolates from mechanically ventilated chronic respiratory insufficiency patient
Pseudomonas aeruginosa [33] = experiment: Antimicrobial activity against Pseudomonas aeruginosa 8A2 tracheal isolates from mechanically ventilated chronic respiratory insufficiency patient
Pseudomonas aeruginosa [34] = experiment: Antimicrobial activity against Pseudomonas aeruginosa 8B11 tracheal isolates from mechanically ventilated chronic respiratory insufficiency patient
Pseudomonas aeruginosa [35] = experiment: Antimicrobial activity against Pseudomonas aeruginosa 9B5 tracheal isolates from mechanically ventilated chronic respiratory insufficiency patient
Pseudomonas aeruginosa [36] = experiment: Antimicrobial activity against Pseudomonas aeruginosa 10B1 tracheal isolates from mechanically ventilated chronic respiratory insufficiency patient
Pseudomonas aeruginosa [37] = experiment: Antimicrobial activity against Pseudomonas aeruginosa 10B3 tracheal isolates from mechanically ventilated chronic respiratory insufficiency patient
Pseudomonas aeruginosa [38] = experiment: Antimicrobial activity against Pseudomonas aeruginosa 12A3 tracheal isolates from mechanically ventilated chronic respiratory insufficiency patient
Pseudomonas aeruginosa [39] = experiment: Antimicrobial activity against Pseudomonas aeruginosa 29G6 tracheal isolates from mechanically ventilated chronic respiratory insufficiency patient
Pseudomonas aeruginosa [40] = experiment: Antimicrobial activity against Pseudomonas aeruginosa 29G7 tracheal isolates from mechanically ventilated chronic respiratory insufficiency patient
Pseudomonas aeruginosa [41] = experiment: Antimicrobial activity against Pseudomonas aeruginosa 29G8 tracheal isolates from mechanically ventilated chronic respiratory insufficiency patient
Pseudomonas aeruginosa [42] = experiment: Antimicrobial activity against Pseudomonas aeruginosa 19E2 tracheal isolates from mechanically ventilated chronic respiratory insufficiency patient
Pseudomonas aeruginosa [43] = experiment: Antimicrobial activity against Pseudomonas aeruginosa 19E9 tracheal isolates from mechanically ventilated chronic respiratory insufficiency patient
Pseudomonas aeruginosa [44] = experiment: Antimicrobial activity against Pseudomonas aeruginosa 22D2 tracheal isolates from mechanically ventilated chronic respiratory insufficiency patient
Pseudomonas aeruginosa [45] = experiment: Antimicrobial activity against Pseudomonas aeruginosa 22D6 tracheal isolates from mechanically ventilated chronic respiratory insufficiency patient
Pseudomonas aeruginosa [46] = experiment: Antimicrobial activity against Pseudomonas aeruginosa 22D9 tracheal isolates from mechanically ventilated chronic respiratory insufficiency patient
Pseudomonas aeruginosa [47] = experiment: Antimicrobial activity against Pseudomonas aeruginosa 22E1 tracheal isolates from mechanically ventilated chronic respiratory insufficiency patient
Pseudomonas aeruginosa [48] = experiment: Antimicrobial activity against Pseudomonas aeruginosa 22E3 tracheal isolates from mechanically ventilated chronic respiratory insufficiency patient
Pseudomonas aeruginosa [49] = experiment: Antimicrobial activity against Pseudomonas aeruginosa 22C5 tracheal isolates from mechanically ventilated chronic respiratory insufficiency patient
Pseudomonas aeruginosa [50] = experiment: Antimicrobial activity against Pseudomonas aeruginosa 24E5 tracheal isolates from mechanically ventilated chronic respiratory insufficiency patient
Pseudomonas aeruginosa [51] = experiment: Antimicrobial activity against Pseudomonas aeruginosa P21.21 tracheal isolates from mechanically ventilated tuberculosis patient
Pseudomonas aeruginosa [52] = experiment: Antimicrobial activity against Pseudomonas aeruginosa P21.23 tracheal isolates from mechanically ventilated tuberculosis patient
Pseudomonas aeruginosa [53] = experiment: Antimicrobial activity against Pseudomonas aeruginosa 65.33-1 tracheal isolates from mechanically ventilated tuberculosis patient
Pseudomonas aeruginosa [54] = experiment: Antimicrobial activity against Pseudomonas aeruginosa 65.33-2 tracheal isolates from mechanically ventilated tuberculosis patient
Pseudomonas aeruginosa [55] = experiment: Antimicrobial activity against Pseudomonas aeruginosa 65.33-4 tracheal isolates from mechanically ventilated tuberculosis patient
Pseudomonas aeruginosa [56] = experiment: Antimicrobial activity against Pseudomonas aeruginosa 65.36-1 tracheal isolates from mechanically ventilated tuberculosis patient
Pseudomonas aeruginosa [57] = experiment: Antimicrobial activity against Pseudomonas aeruginosa 65.36-2 tracheal isolates from mechanically ventilated tuberculosis patient
Pseudomonas aeruginosa [58] = experiment: Antimicrobial activity against Pseudomonas aeruginosa 65.36-3 tracheal isolates from mechanically ventilated tuberculosis patient
Pseudomonas aeruginosa [59] = experiment: Antimicrobial activity against Pseudomonas aeruginosa 65.38-1 tracheal isolates from mechanically ventilated tuberculosis patient

Measured: Activity

O=C(O)c1cn(C2CC2)c2cc(N3CCNCC3)c(F)cc2c1=O
inactive: Pseudomonas aeruginosa [6] | Pseudomonas aeruginosa [28]
active: all other assays above
